Test results: patent US10111956B2, “Corticosteroid compositions” (TOLMAR, Inc., priority 2013, dated 2018)

What was measured:
[1] = Solubility of corticosteroids in neat solvents, measured gravimetrically; type: physicochemical; details: for Solubility in PG Monocaprylate: neat PG monocaprylate; for Solubility in PG Monocaprylate / Solubility in PG Monolaurate / Solubility in Isopropyl Myristate: room temperature, examined at about 24 hours; for Solubility in PG Monolaurate: neat PG monolaurate; for Solubility in Isopropyl Myristate: neat isopropyl myristate; for times more soluble in PG monocaprylate than in isopropyl myristate / times more soluble in PG monolaurate than in isopropyl myristate: ratio of Table 1 solubilities
Protocol: (§1) The solubilities of various corticosteroids in propylene glycol (PG) monocaprylate, PG monolaurate, or isopropyl myristate were measured gravimetrically. Corticosteroid, PG monocaprylate, PG monolaurate, and/or isopropyl myristate were placed in glass vials and weighed on an analytical balance to four decimals places. Test solutions were stirred and shaken at room temperature for up to 30 minutes. Test solutions were examined at about 24 hours for clarity or non-dissolved material.

[2] = Solubility of corticosteroid in mixtures of solvent components (procedure of Example 1); type: physicochemical
Protocol: as §1

SMILES: CCC(=O)OCC(=O)[C@@]1(OC(=O)CC)[C@@H](C)C[C@H]2[C@@H]3CCC4=CC(=O)C=C[C@]4(C)[C@@]3(F)[C@@H](O)C[C@@]21C [Betamethasone Dipropionate]
- Solubility in PG Monocaprylate [1]: 4.0 % w/w
- Solubility in PG Monolaurate [1]: 2.30 % w/w
- Solubility in Isopropyl Myristate [1]: 0.15 % w/w
- times more soluble in PG monocaprylate than in isopropyl myristate [1]: 27 times
- times more soluble in PG monolaurate than in isopropyl myristate [1]: 15.3 times

SMILES: CCC(=O)O[C@]1(C(=O)CCl)[C@@H](C)C[C@H]2[C@@H]3CCC4=CC(=O)C=C[C@]4(C)[C@@]3(F)[C@@H](O)C[C@@]21C [Clobetasol Propionate]
- Solubility in PG Monocaprylate [1]: 4.0 % w/w
- Solubility in PG Monolaurate [1]: 1.80 % w/w
- Solubility in Isopropyl Myristate [1]: 0.25 % w/w
- times more soluble in PG monocaprylate than in isopropyl myristate [1]: 16 times
- times more soluble in PG monolaurate than in isopropyl myristate [1]: 7.2 times

SMILES: CC1(C)O[C@@H]2C[C@H]3[C@@H]4CCC5=CC(=O)C=C[C@]5(C)[C@H]4[C@@H](O)C[C@]3(C)[C@]2(C(=O)CO)O1 [Desonide]
- Solubility in PG Monocaprylate [1]: 1.15 % w/w
- Solubility in PG Monolaurate [1]: 0.40 % w/w

SMILES: CCC(=O)O[C@]1(C(=O)SCF)[C@H](C)C[C@H]2[C@@H]3C[C@H](F)C4=CC(=O)C=C[C@]4(C)[C@@]3(F)[C@@H](O)C[C@@]21C [Fluticasone Propionate]
- Solubility in PG Monocaprylate [1]: 0.3 % w/w
- Solubility in Isopropyl Myristate [1]: <0.03 % w/w
- times more soluble in PG monocaprylate than in isopropyl myristate [1]: 10 times

SMILES: CCCC(=O)O[C@]1(C(=O)CO)CC[C@H]2[C@@H]3CCC4=CC(=O)CC[C@]4(C)[C@H]3[C@@H](O)C[C@@]21C [Hydrocortisone Butyrate]
- Solubility in PG Monocaprylate [1]: 2.0 % w/w
- Solubility in PG Monolaurate [1]: 1.35 % w/w
- Solubility in Isopropyl Myristate [1]: 0.10 % w/w
- times more soluble in PG monocaprylate than in isopropyl myristate [1]: 20 times
- times more soluble in PG monolaurate than in isopropyl myristate [1]: 13.5 times

SMILES: C[C@@H]1C[C@H]2[C@@H]3CCC4=CC(=O)C=C[C@]4(C)[C@@]3(Cl)[C@@H](O)C[C@]2(C)[C@@]1(OC(=O)c1ccco1)C(=O)CCl [Mometasone Fuorate]
- Solubility in PG Monocaprylate [1]: 0.7 % w/w

SMILES: CC1(C)O[C@@H]2C[C@H]3[C@@H]4CCC5=CC(=O)C=C[C@]5(C)[C@@]4(F)[C@@H](O)C[C@]3(C)[C@]2(C(=O)CO)O1 [Triamcinolone Acetonide]
- increase of solubility on addition of ethoxydiglycol to PG alone ([2]; 12:12:0 ethoxydiglycol:PG:PG monocaprylate versus PG alone, Example 5): 1.7 fold
- Solubility ([2]; Ethoxydiglycol:PG:PG Monocaprylate 12:0:12, Table 7): 1.53 % w/w
- Solubility ([2]; Ethoxydiglycol:PG:PG Monocaprylate 12:3:9, Table 7): 2.00 % w/w
- Solubility ([2]; Ethoxydiglycol:PG:PG Monocaprylate 12:6:6, Table 7): 2.30 % w/w
- Solubility ([2]; Ethoxydiglycol:PG:PG Monocaprylate 12:9:3, Table 7): 2.45 % w/w
- Solubility ([2]; Ethoxydiglycol:PG:PG Monocaprylate 12:12:0, Table 7): 2.45 % w/w
- solubility in ethoxydiglycol:PG:PG monocaprylate mixture compared with PG:PG monocaprylate mixture ([2]; FIG. 4): more soluble
- solubility in PG:PG monocaprylate mixtures compared with expected solubility (dashed line) ([2]; FIG. 4, each tested mixture containing both PG and PG monocaprylate): more soluble in the mixture than expected
- Solubility ([2]; PG:PG Monocaprylate 0:100 (PG monocaprylate alone), Table 6): 0.60 % w/w
- Solubility ([2]; PG:PG Monocaprylate 25:75, Table 6): 1.25 % w/w
- Solubility ([2]; PG:PG Monocaprylate 50:50, Table 6): 1.60 % w/w
- Solubility ([2]; PG:PG Monocaprylate 75:25, Table 6): 1.50 % w/w
- Solubility ([2]; PG:PG Monocaprylate 90:10, Table 6): 1.15 % w/w
- Solubility ([2]; PG:PG Monocaprylate 100:0 (PG alone), Table 6): 0.90 % w/w
- Solubility in PG Monocaprylate [1]: 0.65 % w/w
- Solubility in PG Monolaurate [1]: 0.30 % w/w
- Solubility in PG Monolaurate ([1]; listed as triamcinolone acetonide): 0.3 % w/w
- Solubility in Isopropyl Myristate [1]: <0.04 % w/w
- times more soluble in PG monocaprylate than in isopropyl myristate [1]: at least 16 times
- times more soluble in PG monolaurate than in isopropyl myristate [1]: at least 7.5 times
